Data taken from US9802918B2, “Pyridineamine compounds useful as Pim kinase inhibitors” (Incyte Corporation, priority 2015, dated 2017).
pIC50: −log10 of the molar value.

Experiments:
Type in all cases: biochemical
Pim-3 = Pim-3 (Homo sapiens (Human), UniProt Q86V86); experiment: Pim-3 kinase assay; conditions: 1 mM ATP; read-out: Pim3 IC50
Description: Pim-1 and Pim-3 kinase assays-20 μL reactions were run in white 384 well polystyrene plates dotted with 0.8 μL compound/DMSO in the assay buffer (50 mM Tris, pH 7.5, 0.01% Tween-20, 5 mM mgCl2, 0.01% BSA, 5 mM DTT), containing […] Biotin-labeled BAD peptide substrate (AnaSpec 62269), 1 mM ATP, and 2.5 pM (Pim-1, Invitrogen PV3503) or 1.25 pM (Pim-3, Millipore 14-738) enzyme for 1 h at 25° C. Reactions were stopped by addition of 10 μL STOP Buffer (150 mM Tris, pH=7.5, 150 mM NaCl, 75 mM EDTA, 0.01% Tween-20, 0.3% BSA,) supplemented with Phospho-Bad (Ser112) Antibody (Cell Signaling 9291) diluted 666-fold, and Streptavidin donor beads (PerkinElmer 6760002) along with Protein-A acceptor beads (PerkinElmer 6760137) at 15 μg/mL each. Supplementation of the STOP buffer with beads and stopping the reactions were done under reduced light. Prior to the stopping reactions STOP buffer with beads was preincubated for 1 h in the dark at room temperature. After stopping the reactions, plates were incubated for 1 h in the dark at room temperature before reading on a PHERAstar FS plate reader (BMG Labtech) under reduced light.

Pim-2 = Pim-2 (Homo sapiens (Human), UniProt Q9P1W9); experiment: Pim-2 kinase assay; conditions: 1 mM ATP; read-out: Pim2 IC50
Pim-2, sequence (Q9P1W9 whole entry): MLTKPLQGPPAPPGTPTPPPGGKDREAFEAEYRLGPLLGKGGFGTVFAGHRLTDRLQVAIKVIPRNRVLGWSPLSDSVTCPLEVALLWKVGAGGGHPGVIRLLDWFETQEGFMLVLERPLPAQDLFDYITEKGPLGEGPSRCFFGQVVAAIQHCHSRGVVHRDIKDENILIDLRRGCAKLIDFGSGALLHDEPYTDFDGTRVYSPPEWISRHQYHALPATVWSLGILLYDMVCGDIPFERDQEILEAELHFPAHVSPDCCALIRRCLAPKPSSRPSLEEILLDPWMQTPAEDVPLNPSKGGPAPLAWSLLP
Description: Pim-2 kinase assay—20 μL reactions were run in white 384 well polystyrene plates dotted with 0.8 μL compound/DMSO in the assay buffer (50 mM Tris, pH 7.5, 0.01% Tween-20, 5 mM mgCl2, 0.01% BSA, 5 mM DTT), containing […] Fluorescein-labeled CREBtide peptide substrate (Invitrogen PV3508), 1 mM ATP, and 1 nM enzyme (Invitrogen PV3649) for 2 h at 25° C. Reactions were stopped by addition of 10 μL TR-FRET Dilution Buffer (Invitrogen PV3574) with 30 mM EDTA and 1.5 nM LanthaScreen Tb-CREB pSer133 antibody (Invitrogen PV3566). After 30 min. incubation at room temperature, plates were read on a PHERAstar FS plate reader (BMG Labtech).

Pim-1 = Pim-1 (Homo sapiens (Human), UniProt P11309); experiment: Pim-1 kinase assay; conditions: 1 mM ATP; read-out: Pim1 IC50
Pim-1, sequence (P11309 whole entry): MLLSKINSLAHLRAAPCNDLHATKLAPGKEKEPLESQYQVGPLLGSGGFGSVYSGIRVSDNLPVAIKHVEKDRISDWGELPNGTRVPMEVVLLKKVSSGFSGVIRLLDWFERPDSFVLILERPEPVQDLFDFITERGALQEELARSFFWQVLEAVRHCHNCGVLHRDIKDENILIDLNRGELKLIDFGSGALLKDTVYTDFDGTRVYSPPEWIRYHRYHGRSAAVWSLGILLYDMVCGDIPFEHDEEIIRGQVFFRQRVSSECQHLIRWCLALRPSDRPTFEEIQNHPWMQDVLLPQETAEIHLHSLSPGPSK
Description: Supplementation of the STOP buffer with beads and stopping the reactions were done under reduced light. Prior to the stopping reactions STOP buffer with beads was preincubated for 1 h in the dark at room temperature. After stopping the reactions, plates were incubated for 1 h in the dark at room temperature before reading on a PHERAstar FS plate reader (BMG Labtech) under reduced light.

| Structure (SMILES) | pIC50 (Pim-3) | pIC50 (Pim-2) | pIC50 (Pim-1) |
| --- | --- | --- | --- |
| C[C@H]1CN(c2ccncc2NCc2ccc(F)c(-c3c(F)cc(CN4CCC4)cc3F)n2)C[C@@H](N)[C@@H]1O [Example 41, (3R,4R,5S)-3-Amino-1-(3-(((6-(4-(azetidin-1-ylmethyl)-2,6-difluorophenyl)-5-fluoropyridin-2-yl)methyl)amino)pyridin-4-yl)-5-methylpiperidin-4-ol] | ≥ 8.00 | 6.00 to 7.00 | > 8.00 |
| C[C@H]1CN(c2ccncc2NCc2ccc(F)c(-c3c(F)cc(C4(O)CC4)cc3F)n2)C[C@@H](N)[C@@H]1O [Example 8, (3R,4R,5S)-3-Amino-1-{3-[({6-[2,6-difluoro-4-(1-hydroxycyclopropyl)phenyl]-5-fluoropyridin-2-yl}methyl)amino]pyridin-4-yl}-5-methylpiperidin-4-ol] | ≥ 8.00 | 6.00 to 7.00 | > 8.00 |
| C[C@H]1CN(c2ccncc2NCc2ccc(F)c(-c3c(F)cc(C4(F)CCOCC4)cc3F)n2)C[C@@H](N)[C@@H]1O [Example 61, (3R,4R,5S)-3-Amino-1-{3-[({6-[2,6-difluoro-4-(4-fluorotetrahydro-2H-pyran-4-yl)phenyl]-5-fluoropyridin-2-yl}methyl)amino]pyridin-4-yl}-5-methylpiperidin-4-ol] | ≥ 8.00 | ≥ 7.00 | > 8.00 |
| C[C@@H]1C[C@H](N)CN(c2c(NCc3ccc(F)c(-c4c(F)cccc4F)n3)cnc3c2CCC3O)C1 (single isomer, unassigned) [Example 87 (Diastereoisomer 1)] | 7.30 to 8.00 | 5.00 to 6.00 | > 8.00 |
| C[C@H]1CN(c2ccncc2NCc2ccc(F)c(-c3c(F)cc4ncccc4c3F)n2)C[C@@H](N)[C@@H]1O [Example 37, (3R,4R,5S)-3-Amino-1-[3-({[6-(5,7-difluoroquinolin-6-yl)-5-fluoropyridin-2-yl]methyl}amino)pyridin-4-yl]-5-methylpiperidin-4-ol] | ≥ 8.00 | 6.00 to 7.00 | > 8.00 |
| C[C@H]1CN(c2ccncc2NCc2ccc3occ(-c4c(F)cc(CO)cc4F)c3n2)C[C@@H](N)[C@@H]1O [Example 96, (3R,4R,5S)-3-amino-1-(3-(((3-(2,6-difluoro-4-(hydroxymethyl)phenyl)furo[3,2-b]pyridin-5-yl)methyl)amino)pyridin-4-yl)-5-methylpiperidin-4-ol] | ≥ 8.00 | 6.00 to 7.00 | > 8.00 |
| C[C@@H]1C[C@H](N)CN(c2ccncc2NCc2ccc(F)c(-c3c(F)cc(N4CC(C)(O)C4)cc3F)n2)C1 [Example 72, 1-(4-{6-[({4-[(3S,5R)-3-Amino-5-methylpiperidin-1-yl]pyridin-3-yl}amino)methyl]-3-fluoropyridin-2-yl}-3,5-difluorophenyl)-3-methylazetidin-3-ol] | ≥ 8.00 | ≥ 7.00 | > 8.00 |
| C[C@H]1CN(c2ccncc2NCc2ccc(F)c(-c3c(F)cccc3F)n2)C[C@@H](N)[C@@H]1O [Example 14, (3R,4R,5S)-3-Amino-1-[3-({[6-(2,6-difluorophenyl)-5-fluoropyridin-2-yl]methyl}amino)pyridin-4-yl]-5-methylpiperidin-4-ol] | ≥ 8.00 | ≥ 7.00 | > 8.00 |
| C[C@H]1CN(c2ccncc2NCc2cccc(-c3c(F)cccc3F)n2)C[C@@H](N)[C@@H]1O [Example 28, (3R,4R,5S)-3-Amino-1-[3-({[6-(2,6-difluorophenyl)pyridin-2-yl]methyl}amino)pyridin-4-yl]-5-methylpiperidin-4-ol] | ≥ 8.00 | 6.00 to 7.00 | > 8.00 |
| C[C@@H]1C[C@H](N)CN(c2ccncc2NCc2ccc(F)c(-c3c(F)cc(CN4CC[C@H](C#N)C4)cc3F)n2)C1 [Example 54, (S)-1-(4-(6-((4-((3S,5R)-3-amino-5-methylpiperidin-1-yl)pyridin-3-ylamino)methyl)-3-fluoropyridin-2-yl)-3,5-difluorobenzyl)pyrrolidine-3-carbonitrile] | ≥ 8.00 | ≥ 7.00 | > 8.00 |
| C[C@H]1CN(c2ccncc2NCc2ccc(F)c(-c3c(F)cc(O[C@H]4CCOC4)cc3F)n2)C[C@@H](N)[C@@H]1O [Example 75, (3R,4R,5S)-3-Amino-1-(3-{[(6-{2,6-difluoro-4-[(3S)-tetrahydrofuran-3-yloxy]phenyl}-5-fluoropyridin-2-yl)methyl]amino}pyridin-4-yl)-5-methylpiperidin-4-ol] | ≥ 8.00 | ≥ 7.00 | > 8.00 |
| C[C@H]1CN(c2ccncc2NCc2ccc3occ(-c4ccc(CO)cc4F)c3n2)C[C@@H](N)[C@@H]1O [Example 97, (3R,4R,5S)-3-amino-1-(3-(((3-(2-fluoro-4-(hydroxymethyl)phenyl)furo[3,2-b]pyridin-5-yl)methyl)amino)pyridin-4-yl)-5-methylpiperidin-4-ol] | ≥ 8.00 | 6.00 to 7.00 | 7.30 to 8.00 |
| C[C@@H]1C[C@H](N)CN(c2ccncc2NCc2ccc(F)c(-c3c(F)cc(C4CCOCC4)cc3F)n2)C1 [Example 64, 4-[(3S,5R)-3-Amino-5-methylpiperidin-1-yl]-N-({6-[2,6-difluoro-4-(tetrahydro-2H-pyran-4-yl)phenyl]-5-fluoropyridin-2-yl}methyl)pyridin-3-amine] | ≥ 8.00 | ≥ 7.00 | > 8.00 |
| COC1(c2cc(F)c(-c3nc(CNc4cnccc4N4C[C@H](C)C[C@H](N)C4)ccc3F)c(F)c2)CCOCC1 [Example 60, 4-[(3S,5R)-3-Amino-5-methylpiperidin-1-yl]-N-({6-[2,6-difluoro-4-(4-methoxytetrahydro-2H-pyran-4-yl)phenyl]-5-fluoropyridin-2-yl}methyl)pyridin-3-amine] | ≥ 8.00 | 6.00 to 7.00 | > 8.00 |
| C[C@@H]1C[C@H](N)CN(c2ccncc2NCc2ccc3ccc(-c4ccn5ccnc5c4)cc3n2)C1 [Example 92, 4-[(3S,5R)-3-Amino-5-methylpiperidin-1-yl]-N-[(7-imidazo[1,2-a]pyridin-7-ylquinolin-2-yl)methyl]pyridin-3-amine] | ≥ 8.00 | 6.00 to 7.00 | > 8.00 |
| C[C@@H]1C[C@H](N)CN(c2ccncc2NCc2ccc3occ(-c4ccc(CO)cc4F)c3n2)C1 [Example 100, (4-(5-((4-((3S,5R)-3-amino-5-methylpiperidin-1-yl)pyridin-3-ylamino)methyl)furo[3,2-b]pyridin-3-yl)-3-fluorophenyl)methanol] | ≥ 8.00 | ≥ 7.00 | > 8.00 |
| C[C@@H]1C[C@H](N)CN(c2ccncc2NCc2ccc(F)c(-c3c(F)cc(C4(O)CCC4)cc3F)c2)C1 [Example 26, 1-(5′-((4-((3S,5R)-3-Amino-5-methylpiperidin-1-yl)pyridin-3-ylamino)methyl)-2,2′,6-trifluorobiphenyl-4-yl)cyclobutanol] | ≥ 8.00 | 6.00 to 7.00 | > 8.00 |
| C[C@@H]1C[C@H](N)CN(c2ccncc2NCc2ccc(F)c(-c3c(F)cccc3F)c2)C1 [Example 25, 4-[(3S,5R)-3-Amino-5-methylpiperidin-1-yl]-N-[(2′,6,6′-trifluorobiphenyl-3-yl)methyl]pyridin-3-amine] | ≥ 8.00 | 6.00 to 7.00 | > 8.00 |
| C[C@@H]1C[C@H](N)C[C@H](c2ccncc2NCc2ccc(F)c(-c3c(F)cc(C4(O)CCC4)cc3F)n2)C1 [Example 67, 1-(4-{6-[({4-[(1R,3S,5S)-3-Amino-5-methylcyclohexyl]pyridin-3-yl}amino)methyl]-3-fluoropyridin-2-yl}-3,5-difluorophenyl)cyclobutanol] | ≥ 8.00 | 6.00 to 7.00 | > 8.00 |
| C[C@@H]1C[C@H](N)CN(c2ccncc2NCc2ccc(F)c(-c3c(F)cc(C4(O)CCC4)cc3F)n2)C1 [Example 5, 1-(4-(6-((4-((3S,5R)-3-Amino-5-methylpiperidin-1-yl)pyridin-3-ylamino)methyl)-3-fluoropyridin-2-yl)-3,5-difluorophenyl)cyclobutanol] | ≥ 8.00 | ≥ 7.00 | > 8.00 |
| C[C@H]1CN(c2ccncc2NCc2ccc(F)c(-c3ccccc3F)n2)C[C@@H](N)[C@@H]1O [Example 18, (3R,4R,5S)-3-Amino-1-(3-(((5-fluoro-6-(2-fluorophenyl)pyridin-2-yl)methyl)amino)pyridin-4-yl)-5-methylpiperidin-4-ol] | ≥ 8.00 | 6.00 to 7.00 | > 8.00 |
